Assay [1] relates to Rattus norvegicus. Briefly: Acquisition time in Scopolamine induced avoidance test (performed in rat) for antagonistic activity after p.o. administration of 5 mg/kg. The class given is functional. The note with it: route oral.
Assay [2] deals with Rattus norvegicus. The assay is described as follows: Acquisition time in Scopolamine induced avoidance test (performed in rat) for antagonistic activity after p.o. administration of 0.31 mg/kg. Format: functional. The note with it: route oral.
Assay [3] relates to Rattus norvegicus. Briefly: Retention time in Scopolamine induced avoidance test (performed in rat) for antagonistic activity after peroral administration of 80 mg/kg. Format: functional, organism-based. Also noted: dose 80 mg/kg.
The subject of assay [4] is Mus musculus. Briefly: Tested for locomotor activity after oral administration of […] for 120 min. The class given is functional.
Assay [5] deals with Rattus norvegicus. The assay is described as follows: Retention time in Scopolamine induced avoidance test (performed in rat) for antagonistic activity after p.o. administration of 0.31 mg/kg. The class given is functional, organism-based. Also on record: dose 0.31 mg/kg.
For assay [6], the system named is Mus musculus. The assay is described as follows: Tested for locomotor activity after oral administration of 10 mg/kg for 120 min. The class given is functional.
Assay [7] relates to Mus musculus. Briefly: Tested for locomotor activity after oral administration of 40 mg/kg for 120 min. The class given is functional.
Assay [8] has as its system Rattus norvegicus. The assay is described as follows: Retention time in Scopolamine induced avoidance test (performed in rat) for antagonistic activity after peroral administration of 1.25 mg/kg. The class given is functional, organism-based. Also on record: dose 1.25 mg/kg.
For assay [9], the system named is Rattus norvegicus. The assay is described as follows: Retention time in Scopolamine induced avoidance test (performed in rat) for antagonistic activity after peroral administration of 5 mg/kg. Format: functional, organism-based. Also noted: dose 5 mg/kg.
The test system of assay [10] is Rattus norvegicus. The assay is described as follows: Acquisition time in Scopolamine induced avoidance test (performed in rat) for antagonistic activity after peroral administration of 1.25 mg/kg. The class given is functional. The note with it: route oral.
Assay [11] concerns Rattus norvegicus. Briefly: Acquisition time in Scopolamine induced avoidance test (performed in rat) for antagonistic activity after peroral administration of 80 mg/kg. Format: functional. To be noted: route oral.
The subject of assay [12] is Rattus norvegicus. The assay is described as follows: Acquisition time in Scopolamine induced avoidance test (performed in rat) for antagonistic activity after peroral administration of 20 mg/kg. The note with it: route oral. The class given is functional.
Assay [13] relates to Rattus norvegicus. Briefly: Retention time in Scopolamine induced avoidance test (performed in rat) for antagonistic activity after peroral administration of 20 mg/kg. The class given is functional, organism-based. Also on record: dose 20 mg/kg.
The test system of assay [14] is Mus musculus. Briefly: Acquisition time in (R)-PIA) induced avoidance test (performed in mice) for antagonistic activity after p.o. administration of 0.31 mg/kg. The note with it: route oral. Format: functional.
Assay [15] deals with Rattus norvegicus. Briefly: Acquisition time in Scopolamine induced avoidance test (performed in rat) for antagonistic activity after peroral administration of 0.02 mg/kg. Format: functional. To be noted: route oral.
For assay [16], the system named is Rattus norvegicus. The assay is described as follows: Retention time in Scopolamine induced avoidance test (performed in rat) for antagonistic activity after p.o. administration of 0.08 mg/kg. Format: functional, organism-based. Also on record: dose 0.08 mg/kg.
Assay [17] deals with Mus musculus. Briefly: Retention time in (R)-PIA) induced avoidance test (performed in mice) for antagonistic activity after p.o. administration of 1.25 mg/kg. The class given is functional, organism-based. Also noted: dose 1.25 mg/kg.
Assay [18] deals with Rattus norvegicus. The assay is described as follows: Retention time in Scopolamine induced avoidance test (performed in […]) for antagonistic activity after peroral administration of 5 mg/kg. The class given is functional, organism-based. Also noted: dose 5 mg/kg.
In assay [19] the test system is Mus musculus. The assay is described as follows: Acquisition time in (R)-PIA) induced avoidance test (performed in mice) for antagonistic activity after peroral administration of 5 mg/kg. The class given is functional. The note with it: route oral.
The target of another assay is T1, Adenosine receptor A1 (Cavia porcellus, UniProt P47745).
T1 sequence (P47745 whole entry): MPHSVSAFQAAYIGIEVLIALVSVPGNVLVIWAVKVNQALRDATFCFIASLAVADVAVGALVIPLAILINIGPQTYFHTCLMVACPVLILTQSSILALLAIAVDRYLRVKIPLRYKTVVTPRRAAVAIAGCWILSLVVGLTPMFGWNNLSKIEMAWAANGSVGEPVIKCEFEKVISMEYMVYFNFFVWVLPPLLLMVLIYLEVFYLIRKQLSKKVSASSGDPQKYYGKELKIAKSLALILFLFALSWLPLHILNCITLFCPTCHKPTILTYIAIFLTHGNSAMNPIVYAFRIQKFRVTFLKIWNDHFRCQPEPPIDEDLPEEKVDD
The assay is described as follows: Binding affinity against Adenosine A1 receptor from guinea pig forebrain membranes by N6-[3H]- cyclohexyladenosine displacement.

Assay [20] relates to Mus musculus. The assay is described as follows: Acquisition time in (R)-PIA) induced avoidance test (performed in mice) for antagonistic activity after peroral administration of 0.08 mg/kg. The class given is functional. The note with it: route oral.
The test system of assay [21] is Mus musculus. Briefly: Retention time in (R)-PIA) induced avoidance test (performed in mice) for antagonistic activity after peroral administration of 0.08 mg/kg. Also on record: dose 0.08 mg/kg. The class given is functional, organism-based.
Assay [22] concerns Mus musculus. Briefly: Acquisition time in (R)-PIA) induced avoidance test (performed in mice) for antagonistic activity after p.o. administration of 1.25 mg/kg. The class given is functional. The note with it: route oral.
A further assay addresses Adenosine A2 receptor (Rattus norvegicus, UniProt P29276+P30543). The assay is described as follows: Binding affinity against Adenosine A2 receptor from rat striatal membranes with N-[3H] ethyladenosin-5'-uronamide.
The subject of assay [23] is Mus musculus. Briefly: Retention time in (R)-PIA) induced avoidance test (performed in mice) for antagonistic activity after peroral of 0.31 mg/kg. Also noted: dose 0.31 mg/kg. Format: functional, organism-based.
Assay [24] concerns Rattus norvegicus. Briefly: Acquisition time in Scopolamine induced avoidance test (performed in rat) for antagonistic activity after p.o. administration of 0.08 mg/kg. The class given is functional. The note with it: route oral.
Assay [25] concerns Mus musculus. Briefly: Retention time in (R)-PIA) induced avoidance test (performed in mice) for antagonistic activity after peroral administration of 5 mg/kg. The class given is functional, organism-based. Also on record: dose 5 mg/kg.
The test system of assay [26] is Rattus norvegicus. The assay is described as follows: Retention time in Scopolamine induced avoidance test (performed in rat) for antagonistic activity after peroral administration of 0.02 mg/kg. Format: functional, organism-based. Also on record: dose 0.02 mg/kg.

We go through 2 compounds from ChEMBL document CHEMBL1126778, “Adenosine A1 antagonists. 3. Structure-activity relationships on amelioration against scopolamine- or N6-((R)-phenylisopropyl)adenosine-induced cognitive disturbance” (J Med Chem, 1993).

The structures appear in SMILES notation.

On to `Cn1c(=O)c2c(ncn2C)n(C)c1=O` [CAFFEINE], for which the Acquisition time with Rattus norvegicus [1] worked out at 11.5 s; with Rattus norvegicus [2] it was 18.3 s; with Rattus norvegicus [10], 14.6 s; with Rattus norvegicus [11], 29.6 s; with Rattus norvegicus [12], 33.8 s. Moreover, the Retention time with Rattus norvegicus [3] is 7.6 s; with Rattus norvegicus [5] it was 14.9 s; with Rattus norvegicus [8], 11.9 s; in the assay with Rattus norvegicus [9], 12.5 s. Moreover, the Locomotor activity is listed as 6413 Counts in the assay on Mus musculus [4], 9386 Counts with Mus musculus [6] and 9693 Counts with Mus musculus [7].
As for `CCCn1c(=O)c2[nH]c(C3CCCC3)nc2n(CCC)c1=S`, the Retention time with Rattus norvegicus [13] was determined as 52.4 s; with Rattus norvegicus [16], 75.3 s; in the assay on Rattus norvegicus [5], 25.8 s; in the assay with Mus musculus [17] it was 52.7 s; with Rattus norvegicus [8] it was 56.4 s; with Rattus norvegicus [18], 21.6 s. For the same compound, the Retention time in the assay on Mus musculus [21] came to 48.1 s; in the assay with Mus musculus [23] it was 121 s; in the assay on Mus musculus [25] it was 104 s; with Rattus norvegicus [26], 19 s. Further, the Acquisition time turned out to be 32.7 s in the assay with Mus musculus [14]; 8.9 s in the assay on Rattus norvegicus [15]; 8.5 s in the assay with Rattus norvegicus [1]; 8.9 s with Rattus norvegicus [2]; 26.9 s in the assay on Mus musculus [19]; 24.7 s in the assay with Mus musculus [20]. Moreover, the Acquisition time came to 12.3 s with Mus musculus [22], 9.9 s in the assay on Rattus norvegicus [10], 9.4 s with Rattus norvegicus [24] and 6.7 s with Rattus norvegicus [12]. Besides, the inhibition constant (Ki) on Adenosine receptor A1 was 6.6 nM; at Adenosine A2 receptor, over 10000 nM.
